# Data published in ChEMBL document CHEMBL1140359, “Solid-phase synthesis and anti-infective activity of a combinatorial library based on the natural product anisomycin” (Bioorg Med Chem Lett, 2005).
# Test system: Candida albicans
# Assay: Percent inhibition against RG-1 mutant strain of Candida albicans at 15.5 uM
# Type: functional
# Conditions: not given
row,SMILES,inhibition at 15.5 µM
1,COc1ccc(C[C@@H]2[C@H](OC(=O)NCc3ccccc3)[C@@H](O)CN2C(=O)c2cc(C(F)(F)F)cc(C(F)(F)F)c2)cc1,8%
2,COc1ccc(C[C@@H]2[C@H](OC(=O)NCc3ccccc3-c3ccccc3)[C@@H](O)CN2C(=O)OCC(C)C)cc1,< 5%
3,COc1ccc(C[C@@H]2[C@H](OC(=O)NCc3ccc(F)cc3)[C@@H](O)CN2C(=O)c2cc(C(F)(F)F)cc(C(F)(F)F)c2)cc1,< 5%
4,CCOC(=O)N1C[C@H](O)[C@@H](OC(=O)NCc2ccccc2-c2ccccc2)[C@H]1Cc1ccc(OC)cc1,14%
5,COc1ccc(C[C@@H]2[C@H](OC(=O)NCc3ccccc3F)[C@@H](O)CN2C(=O)c2cc(C(F)(F)F)cc(C(F)(F)F)c2)cc1,< 5%
6,CCCOC(=O)N1C[C@H](O)[C@@H](OC(=O)NCc2ccccc2-c2ccccc2)[C@H]1Cc1ccc(OC)cc1,10%

# Test system: Staphylococcus aureus
# Assay: Percent inhibition against MraY/MurG in Staphylococcus aureus cell walls at 25 uM
# Type: functional
# Conditions: not given
row,SMILES,inhibition at 25 µM
1,COc1ccc(C[C@@H]2[C@H](OC(=O)N[C@@H]3CCN(Cc4ccccc4)C3)[C@@H](O)CN2C(=O)Nc2ccc(-c3ccccc3)cc2)cc1,20%
2,COc1ccc(C[C@@H]2[C@H](OC(=O)NC3CCN(Cc4ccccc4)CC3)[C@@H](O)CN2C(=O)c2cc(-c3ccc(Cl)cc3)oc2C(F)(F)F)cc1,< 5%
3,COc1ccc(C[C@@H]2[C@H](OC(=O)N3CCN(C)CC3)[C@@H](O)CN2C(=O)c2cc(-c3ccc(Cl)cc3)oc2C(F)(F)F)cc1,10%

# Test system: Candida albicans
# Assay: Percent inhibition against efflux-deficient strain of Candida albicans at 15.5 uM
# Type: functional
# Conditions: not given
row,SMILES,inhibition at 15.5 µM
1,COc1ccc(C[C@@H]2[C@H](OC(=O)NCc3ccccc3)[C@@H](O)CN2C(=O)c2cc(C(F)(F)F)cc(C(F)(F)F)c2)cc1,87%
2,COc1ccc(C[C@@H]2[C@H](OC(=O)NCc3ccccc3-c3ccccc3)[C@@H](O)CN2C(=O)OCC(C)C)cc1,82%
3,COc1ccc(C[C@@H]2[C@H](OC(=O)NCc3ccc(F)cc3)[C@@H](O)CN2C(=O)c2cc(C(F)(F)F)cc(C(F)(F)F)c2)cc1,87%
4,CCOC(=O)N1C[C@H](O)[C@@H](OC(=O)NCc2ccccc2-c2ccccc2)[C@H]1Cc1ccc(OC)cc1,83%
5,COc1ccc(C[C@@H]2[C@H](OC(=O)NCc3ccccc3F)[C@@H](O)CN2C(=O)c2cc(C(F)(F)F)cc(C(F)(F)F)c2)cc1,87%
6,CCCOC(=O)N1C[C@H](O)[C@@H](OC(=O)NCc2ccccc2-c2ccccc2)[C@H]1Cc1ccc(OC)cc1,96%
7,COc1ccc(C[C@H]2NC[C@H](O)[C@H]2OC(C)=O)cc1 [ANISOMYCIN],> 99%

# Test system: Staphylococcus aureus
# Assay: Percent inhibition against MurPath in Staphylococcus aureus cell walls at the concentration of 25 uM
# Type: functional
# Conditions: not given
row,SMILES,inhibition at 25 µM
1,COc1ccc(C[C@@H]2[C@H](OC(=O)N[C@@H]3CCN(Cc4ccccc4)C3)[C@@H](O)CN2C(=O)Nc2ccc(-c3ccccc3)cc2)cc1,< 5%
2,COc1ccc(C[C@@H]2[C@H](OC(=O)NC3CCN(Cc4ccccc4)CC3)[C@@H](O)CN2C(=O)c2cc(-c3ccc(Cl)cc3)oc2C(F)(F)F)cc1,< 5%
3,COc1ccc(C[C@@H]2[C@H](OC(=O)N3CCN(C)CC3)[C@@H](O)CN2C(=O)c2cc(-c3ccc(Cl)cc3)oc2C(F)(F)F)cc1,< 5%

# Test system: Staphylococcus aureus
# Assay: Minimum inhibitory concentration against Staphylococcus aureus
# Type: functional
# Conditions: not given
row,MIC,SMILES
1,16 µg/mL,COc1ccc(C[C@@H]2[C@H](OC(=O)N[C@@H]3CCN(Cc4ccccc4)C3)[C@@H](O)CN2C(=O)Nc2ccc(-c3ccccc3)cc2)cc1
2,16 µg/mL,COc1ccc(C[C@@H]2[C@H](OC(=O)NC3CCN(Cc4ccccc4)CC3)[C@@H](O)CN2C(=O)c2cc(-c3ccc(Cl)cc3)oc2C(F)(F)F)cc1
3,32 µg/mL,COc1ccc(C[C@@H]2[C@H](OC(=O)N3CCN(C)CC3)[C@@H](O)CN2C(=O)c2cc(-c3ccc(Cl)cc3)oc2C(F)(F)F)cc1

row,SMILES,MIC
1,COc1ccc(C[C@H]2NC[C@H](O)[C@H]2OC(C)=O)cc1 [ANISOMYCIN],> 32 µg/mL

# Test system: HEK293
# Assay: Inhibitory concentration required to produce cytotoxicity against HEK293 cells
# Type: functional, cell-based
# Conditions: Homo sapiens
row,SMILES,IC50
1,COc1ccc(C[C@@H]2[C@H](OC(=O)NCc3ccccc3)[C@@H](O)CN2C(=O)c2cc(C(F)(F)F)cc(C(F)(F)F)c2)cc1,16 µM
2,COc1ccc(C[C@@H]2[C@H](OC(=O)N[C@@H]3CCN(Cc4ccccc4)C3)[C@@H](O)CN2C(=O)Nc2ccc(-c3ccccc3)cc2)cc1,2 µM
3,COc1ccc(C[C@@H]2[C@H](OC(=O)NCc3ccccc3-c3ccccc3)[C@@H](O)CN2C(=O)OCC(C)C)cc1,11 µM
4,COc1ccc(C[C@@H]2[C@H](OC(=O)NCc3ccc(F)cc3)[C@@H](O)CN2C(=O)c2cc(C(F)(F)F)cc(C(F)(F)F)c2)cc1,8 µM
5,CCOC(=O)N1C[C@H](O)[C@@H](OC(=O)NCc2ccccc2-c2ccccc2)[C@H]1Cc1ccc(OC)cc1,22 µM
6,COc1ccc(C[C@@H]2[C@H](OC(=O)NCc3ccccc3F)[C@@H](O)CN2C(=O)c2cc(C(F)(F)F)cc(C(F)(F)F)c2)cc1,10 µM
7,COc1ccc(C[C@@H]2[C@H](OC(=O)NC3CCN(Cc4ccccc4)CC3)[C@@H](O)CN2C(=O)c2cc(-c3ccc(Cl)cc3)oc2C(F)(F)F)cc1,8 µM
8,COc1ccc(C[C@@H]2[C@H](OC(=O)N3CCN(C)CC3)[C@@H](O)CN2C(=O)c2cc(-c3ccc(Cl)cc3)oc2C(F)(F)F)cc1,10 µM
9,CCCOC(=O)N1C[C@H](O)[C@@H](OC(=O)NCc2ccccc2-c2ccccc2)[C@H]1Cc1ccc(OC)cc1,9 µM
10,COc1ccc(C[C@H]2NC[C@H](O)[C@H]2OC(C)=O)cc1 [ANISOMYCIN],0.02 µM
